Assay results as given in PubChem BioAssay AID1963420 (Molecular Pharmacology Branch, DTP, NCI, 2024).

System: 494315-158-R-J1-PDC complex spheroid growth, percent test/control
Assay: Anticancer human tumor 494315-158-R-J1-PDC patient-derived soft tissue sarcoma cell line growth inhibition [Asc]
Settings: for IC50: curve of first compound; for viability, T/C: stronger effect = lower value
Procedure, shortened: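 Tumor cells were grown as complex spheroids with human endothelial cells (HUVEC) and human mesenchymal stem cells as stroma. Agents were tested alone and in combination, in half-log steps down from the clinical Cmax, or from 10 microM where Cmax was unknown.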

[1] = second compound 0.1 µM, first compound 0.00316 µM
[2] = second compound 0.1 µM, first compound 0.01 µM
[3] = second compound 0.1 µM, first compound 0.0316 µM
[4] = second compound 0.1 µM, first compound 0.1 µM
[5] = second compound 0.1 µM, first compound 0.316 µM
[6] = second compound 0.1 µM, first compound 1 µM
[7] = second compound 0.316 µM, first compound 0.00316 µM
[8] = second compound 0.316 µM, first compound 0.01 µM
[9] = second compound 0.316 µM, first compound 0.0316 µM
[10] = second compound 0.316 µM, first compound 0.1 µM
[11] = second compound 0.316 µM, first compound 0.316 µM
[12] = second compound 0.316 µM, first compound 1 µM
[13] = second compound 1 µM, first compound 0.00316 µM
[14] = second compound 1 µM, first compound 0.01 µM
[15] = second compound 1 µM, first compound 0.0316 µM
[16] = second compound 1 µM, first compound 0.1 µM
[17] = second compound 1 µM, first compound 0.316 µM
[18] = second compound 1 µM, first compound 1 µM
[19] = second compound 3.16 µM, first compound 0.00316 µM
[20] = second compound 3.16 µM, first compound 0.01 µM
[21] = second compound 3.16 µM, first compound 0.0316 µM
[22] = second compound 3.16 µM, first compound 0.1 µM
[23] = second compound 3.16 µM, first compound 0.316 µM
[24] = second compound 3.16 µM, first compound 1 µM
[25] = second compound 10 µM, first compound 0.00316 µM
[26] = second compound 10 µM, first compound 0.01 µM
[27] = second compound 10 µM, first compound 0.0316 µM
[28] = second compound 10 µM, first compound 0.1 µM
[29] = second compound 10 µM, first compound 0.316 µM
[30] = second compound 10 µM, first compound 1 µM
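Further: compound exposure lasted seven days after spheroids formed for three days.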

Compound | IC50 (second compound 0.1 µM) [nM] | IC50 (second compound 0.316 µM) [nM] | IC50 (second compound 1 µM) [nM] | IC50 (second compound 3.16 µM) [nM] | IC50 (second compound 10 µM) [nM] | viability, T/C [1] [%] | viability, T/C [2] [%] | viability, T/C [3] [%] | viability, T/C [4] [%] | viability, T/C [5] [%] | viability, T/C [6] [%] | viability, T/C [7] [%] | viability, T/C [9] [%] | viability, T/C [10] [%] | viability, T/C [15] [%] | viability, T/C [16] [%] | viability, T/C [21] [%] | viability, T/C [22] [%] | viability, T/C [27] [%] | viability, T/C [28] [%] | also measured
CCN1CCN(Cc2ccc(Nc3ncc(F)c(-c4cc(F)c5nc(C)n(C(C)C)c5c4)n3)nc2)CC1 + Cc1c(S(C)(=O)=O)c(-c2cc(F)cc(N3CCN(c4ccc(NS(=O)(=O)c5ccc(NC(CCN6CCC(C(=O)OCCCP(=O)(O)O)CC6)CSc6ccccc6)c(S(=O)(=O)C(F)(F)F)c5)cc4)CC3)c2)c(-c2ccc(Cl)cc2)n1C(C)C | > 1000 | 829 | > 1000 | 272 | 725 | 75.6 | 83 | 78.3 | 77.1 | 77.8 | 53.6 | 72.2 | 78 | 67.1 | 68 | 65.7 | 54.3 | 61.4 | 73.2 | 76.7 | viability, T/C [8]: 79.8%; viability, T/C [11]: 70.9%; viability, T/C [12]: 46.1%; viability, T/C [13]: 61.9%; viability, T/C [14]: 65.7%; viability, T/C [17]: 61.6%; viability, T/C [18]: 41.1%; viability, T/C [19]: 56.1%; viability, T/C [20]: 52%; viability, T/C [23]: 46.2%; viability, T/C [24]: 31.3%; viability, T/C [25]: 79%; viability, T/C [26]: 81%; viability, T/C [29]: 73.3%; viability, T/C [30]: 41%
Cn1ncnc1[C@H]1c2n[nH]c(=O)c3cc(F)cc(c23)N[C@@H]1c1ccc(F)cc1 + Cc1c(S(C)(=O)=O)c(-c2cc(F)cc(N3CCN(c4ccc(NS(=O)(=O)c5ccc(NC(CCN6CCC(C(=O)OCCCP(=O)(O)O)CC6)CSc6ccccc6)c(S(=O)(=O)C(F)(F)F)c5)cc4)CC3)c2)c(-c2ccc(Cl)cc2)n1C(C)C | 26.8 | 18.1 | 4.34 | 1.3 | 4.61 | 62.2 | 56.5 | 48.7 | 46.1 | – | – | 63.9 | 50.9 | 48.9 | 38.9 | 35 | 32.9 | 25.4 | 38.4 | 45.7 | viability, T/C (second compound 0.1 µM, first compound 0.000316 µM): 83.2%; viability, T/C (second compound 0.1 µM, first compound 0.001 µM): 76%; viability, T/C (second compound 0.316 µM, first compound 0.000316 µM): 74.6%; viability, T/C (second compound 0.316 µM, first compound 0.001 µM): 63.1%; viability, T/C [8]: 44.6%; viability, T/C (second compound 1 µM, first compound 0.000316 µM): 56.4%; viability, T/C (second compound 1 µM, first compound 0.001 µM): 59%; viability, T/C [13]: 52%; viability, T/C [14]: 43%; viability, T/C (second compound 3.16 µM, first compound 0.000316 µM): 56.1%; viability, T/C (second compound 3.16 µM, first compound 0.001 µM): 53.5%; viability, T/C [19]: 40.3%; viability, T/C [20]: 31.6%; viability, T/C (second compound 10 µM, first compound 0.000316 µM): 66.1%; viability, T/C (second compound 10 µM, first compound 0.001 µM): 71.2%; viability, T/C [25]: 53.3%; viability, T/C [26]: 45.2%
O=C(c1cc(Cc2n[nH]c(=O)c3ccccc23)ccc1F)N1CCN(C(=O)C2CC2)CC1 + Cc1c(S(C)(=O)=O)c(-c2cc(F)cc(N3CCN(c4ccc(NS(=O)(=O)c5ccc(NC(CCN6CCC(C(=O)OCCCP(=O)(O)O)CC6)CSc6ccccc6)c(S(=O)(=O)C(F)(F)F)c5)cc4)CC3)c2)c(-c2ccc(Cl)cc2)n1C(C)C | 3040 | 1620 | 1640 | 1080 | 2260 | – | – | 86 | 76.2 | 69.2 | 63.5 | – | 71.7 | 66.4 | 62.7 | 70.9 | 48.1 | 51.8 | 69.5 | 77.1 | viability, T/C (second compound 0.1 µM, first compound 3.16 µM): 49.5%; viability, T/C (second compound 0.1 µM, first compound 10 µM): 36.3%; viability, T/C [11]: 59.7%; viability, T/C [12]: 57.6%; viability, T/C (second compound 0.316 µM, first compound 3.16 µM): 42.5%; viability, T/C (second compound 0.316 µM, first compound 10 µM): 33%; viability, T/C [17]: 62%; viability, T/C [18]: 57.8%; viability, T/C (second compound 1 µM, first compound 3.16 µM): 40.1%; viability, T/C (second compound 1 µM, first compound 10 µM): 23.4%; viability, T/C [23]: 53.5%; viability, T/C [24]: 51%; viability, T/C (second compound 3.16 µM, first compound 3.16 µM): 37%; viability, T/C (second compound 3.16 µM, first compound 10 µM): 22.2%; viability, T/C [29]: 73.4%; viability, T/C [30]: 58.5%; viability, T/C (second compound 10 µM, first compound 3.16 µM): 46.8%; viability, T/C (second compound 10 µM, first compound 10 µM): 29.3%
O=C(c1ccc(F)c(F)c1Nc1ccc(I)cc1F)N1CC(O)([C@@H]2CCCCN2)C1 + Cc1c(S(C)(=O)=O)c(-c2cc(F)cc(N3CCN(c4ccc(NS(=O)(=O)c5ccc(NC(CCN6CCC(C(=O)OCCCP(=O)(O)O)CC6)CSc6ccccc6)c(S(=O)(=O)C(F)(F)F)c5)cc4)CC3)c2)c(-c2ccc(Cl)cc2)n1C(C)C | 543 | 375 | 258 | 142 | 245 | 78.8 | 78.8 | 87.4 | 85.3 | 72.1 | 24.9 | 71.2 | 70.6 | 72 | 71.6 | 72.5 | 59.5 | 53.6 | 76.4 | 79.9 | viability, T/C [8]: 78.9%; viability, T/C [11]: 55.8%; viability, T/C [12]: 15.5%; viability, T/C [13]: 60.4%; viability, T/C [14]: 61.2%; viability, T/C [17]: 46.5%; viability, T/C [18]: 12.2%; viability, T/C [19]: 60.5%; viability, T/C [20]: 53.6%; viability, T/C [23]: 40.7%; viability, T/C [24]: 18.3%; viability, T/C [25]: 68.2%; viability, T/C [26]: 75.2%; viability, T/C [29]: 43%; viability, T/C [30]: 13.7%
